The source of these data is patent US20110039762A1, “TARGETED ANTIMICROBIAL MOIETIES” (C3 JIAN, INC., priority 2009, published 2011).

“Also recorded” adds a separate entry of the source.

The test system of this test is microorganisms (e.g., bacteria, yeasts, fungi). Nature of the test: Targeting peptide binding to target microorganisms (Table 3). The note with it: microorganism the targeting peptide binds; binding in aqueous buffers varied by peptide solubility, preferably 1x PBS.
Consider “1T-3 (VLGIAGGLDAYGELVGGN; Peptide with targeting and/or antimicrobial activity) [Peptide 1T-3]”, for which the “Target(s)” value is listed as “S. mutans; also recorded: S. gordonii”.
As for “1T-4 (LDAYGELVGGN; Peptide with targeting and/or antimicrobial activity) [Peptide 1T-4]”, the “Target(s)” value is listed as “S. gordonii; also recorded: S. sanguinis; also recorded: S. oralis; also recorded: V. atypica; also recorded: L. casei; also recorded: S. mutans”.
Consider “1T-6 (KFINGVLSQFVLERK; Peptide with targeting and/or antimicrobial activity) [Peptide 1T-6]”, for which the “Target(s)” value is “S. mutans”.
On to “1T-7 (SQRIIEPVKSPQPYPGFSVS; Peptide with targeting and/or antimicrobial activity) [Peptide 1T-7]”, for which the “Target(s)” value is “M. xanthus”.
As for “1T-8 (FSVAACGEQRAVTFVLLIEDLI; Peptide with targeting and/or antimicrobial activity) [Peptide 1T-8]”, the entry is “M. xanthus”.
Turning to “1T-9 (WAWAESPRCVSTRSNIHALAFRVEVAALT; Peptide with targeting and/or antimicrobial activity) [Peptide 1T-9]”, the “Target(s)” value is given as “M. xanthus”.
“1T-10 (SPAGLPGDGDEA; Peptide with targeting and/or antimicrobial activity) [Peptide 1T-10]”: the “Target(s)” value is “M. xanthus”.
On to “1T-11 (RISE; Peptide with targeting and/or antimicrobial activity) [Peptide 1T-11]”, for which the “Target(s)” value is given as “S. mutans; also recorded: S. epidermidis; also recorded: P. aeruginosa”.
As to “1T-12 (FGNIFKGLKDVIETIVKWTAAK; Peptide with targeting and/or antimicrobial activity) [Peptide 1T-12]”, the “Target(s)” value was “C. xerosis; also recorded: C. striatum; also recorded: S. epidermidis; also recorded: S. mutans”.
As for “1T-13 (FRSPCINNNSLQPPGVYPAR; Peptide with targeting and/or antimicrobial activity) [Peptide 1T-13]”, the “Target(s)” value is listed as “S. aureus; also recorded: S. epidermidis; also recorded: P. aeruginosa”.
In the case of “1T-14 (ALAGLAGLISGK; Peptide with targeting and/or antimicrobial activity) [Peptide 1T-14]”, the “Target(s)” value is given as “S. mutans; also recorded: S. aureus; also recorded: S. epidermidis; also recorded: C. xerosis”.
For the substance “1T-15 (DVILRVEAQ; Peptide with targeting and/or antimicrobial activity) [Peptide 1T-15]”, the “Target(s)” value is “S. mutans”.
On to “1T-16 (IDMR; Peptide with targeting and/or antimicrobial activity) [Peptide 1T-16]”, for which the “Target(s)” value is “P. aeruginosa”.
“1T-17 (NNAIVYIS; Peptide with targeting and/or antimicrobial activity) [Peptide 1T-17]”: the “Target(s)” value is listed as “S. mutans”.
Under “1T-18 (YSKTLHFAD; Peptide with targeting and/or antimicrobial activity) [Peptide 1T-18]” stands “S. aureus; also recorded: S. epidermidis; also recorded: C. striatum; also recorded: P. aeruginosa”; under “1T-19 (PGAFRNPQMPRG; Peptide with targeting and/or antimicrobial activity) [Peptide 1T-19]”, “S. aureus; also recorded: S. epidermidis; also recorded: P. aeruginosa”.
“1T-20 (PALVDLSNKEAVWAVLDDHS; Peptide with targeting and/or antimicrobial activity) [Peptide 1T-20]”: the “Target(s)” value is “S. mutans; also recorded: P. aeruginosa”.
As to “1T-21 (YVEEAVRAALKKEARISTEDTPVNLPSFDC; Peptide with targeting and/or antimicrobial activity) [Peptide 1T-21]”, the “Target(s)” value is “S. mutans; also recorded: P. aeruginosa”.
For the substance “1T-22 (VPLDDGTRRPEVARNRDKDRED; Peptide with targeting and/or antimicrobial activity) [Peptide 1T-22]”, the “Target(s)” value is on record as “S. epidermidis; also recorded: P. aeruginosa”.
Consider “1T-23 (PALVDLSNKEAVWAVLDDHS; Peptide with targeting and/or antimicrobial activity) [Peptide 1T-23]”, for which the “Target(s)” value is given as “S. mutans; also recorded: P. aeruginosa”.
With “1T-24 (EEAEEKLAEVSQAVKRLVR; Peptide with targeting and/or antimicrobial activity) [Peptide 1T-24]”, the “Target(s)” value is recorded as “P. aeruginosa”.
Consider “1T-25 (VGLDVSVLVLFFGLQLLSVLLGAMIR; Peptide with targeting and/or antimicrobial activity) [Peptide 1T-25]”, for which the “Target(s)” value is “S. aureus; also recorded: S. epidermidis; also recorded: C. xerosis; also recorded: C. striatum; also recorded: P. aeruginosa”.
Take “1T-26 (LTILPTTFFAIIVPILAVAFIAYSGFKIKGIVEHKDQW; Peptide with targeting and/or antimicrobial activity) [Peptide 1T-26]”: the “Target(s)” value is given as “S. mutans; also recorded: S. aureus; also recorded: S. epidermidis; also recorded: C. jeikeium; also recorded: C. xerosis; also recorded: C. striatum; also recorded: P. aeruginosa”.
“1T-27 (ALFVSLEQFLVVVAKSVFALCHSGTLS; Peptide with targeting and/or antimicrobial activity) [Peptide 1T-27]”: the “Target(s)” value is given as “S. mutans; also recorded: S. aureus; also recorded: S. epidermidis; also recorded: C. jeikeium; also recorded: C. xerosis; also recorded: C. striatum; also recorded: P. aeruginosa”.
As for “1T-28 (VSRDEAMEFIDREWTTLQPAGKSHA; Peptide with targeting and/or antimicrobial activity) [Peptide 1T-28]”, the entry is “P. aeruginosa”; as for “1T-29 (GSVIKKRRKRMSKKKHRKMLRRTRVQRRKLGK; Peptide with targeting and/or antimicrobial activity) [Peptide 1T-29]”, “S. epidermidis; also recorded: C. jeikeium; also recorded: C. xerosis; also recorded: C. striatum; also recorded: P. aeruginosa; also recorded: S. mutans; also recorded: S. aureus”.
“1T-30 (GKAKPYQVRQVLRAVDKLETRRKKGGR; Peptide with targeting and/or antimicrobial activity) [Peptide 1T-30]”: the “Target(s)” value is “S. aureus; also recorded: S. epidermidis; also recorded: C. xerosis; also recorded: C. striatum; also recorded: P. aeruginosa”.
With “1T-31 (NATGTDIGEVTLTLGRFS; Peptide with targeting and/or antimicrobial activity) [Peptide 1T-31]”, the “Target(s)” value is listed as “S. mutans; also recorded: P. aeruginosa”.
With “1T-32 (VSFLAGWLCLGLAAWRLGNA; Peptide with targeting and/or antimicrobial activity) [Peptide 1T-32]”, the “Target(s)” value is reported as “S. mutans”.
Consider “1T-33 (VRTLTILVIFIFNYLKSISYKLKQPFENNLAQSMISI; Peptide with targeting and/or antimicrobial activity) [Peptide 1T-33]”, for which the “Target(s)” value is reported as “S. aureus; also recorded: S. epidermidis; also recorded: C. jeikeium; also recorded: C. xerosis; also recorded: C. striatum; also recorded: P. aeruginosa”.
As for “1T-34 (AFWLNILLTLLGYIPGIVHAVYIIAKR; Peptide with targeting and/or antimicrobial activity) [Peptide 1T-34]”, the “Target(s)” value is reported as “S. aureus; also recorded: S. epidermidis; also recorded: C. jeikeium; also recorded: C. xerosis; also recorded: C. striatum; also recorded: P. aeruginosa”.
On to “1T-35 (EICLTLVFPIRGSYSEAAKFPVPIHIVEDGTVELPK; Peptide with targeting and/or antimicrobial activity) [Peptide 1T-35]”, for which the “Target(s)” value is listed as “P. aeruginosa”.
For “1T-36 (VYRHLRFIDGKLVEIRLERK; Peptide with targeting and/or antimicrobial activity) [Peptide 1T-36]”, the “Target(s)” value is “S. aureus; also recorded: S. epidermidis; also recorded: C. jeikeium; also recorded: C. xerosis; also recorded: C. striatum; also recorded: P. aeruginosa”.
Under “1T-37 (YIVGALVILAVAGLIYSMLRKA; Peptide with targeting and/or antimicrobial activity) [Peptide 1T-37]” stands “S. mutans; also recorded: S. aereus; also recorded: S. epidermidis; also recorded: C. jeikeium; also recorded: C. xerosis; also recorded: C. striatum; also recorded: P. aeruginosa”.
For the substance “1T-38 (VMFVLTRGRSPRPMIPAY; Peptide with targeting and/or antimicrobial activity) [Peptide 1T-38]”, the “Target(s)” value was “S. mutans; also recorded: S. aereus; also recorded: S. epidermidis; also recorded: C. jeikeium; also recorded: C. xerosis; also recorded: C. striatum; also recorded: P. aeruginosa”.
As for “1T-39 (FGFCVWMYQLLAGPPGPPA; Peptide with targeting and/or antimicrobial activity) [Peptide 1T-39]”, the entry is “S. mutans; also recorded: P. aeruginosa”; as for “1T-40 (QRVSLWSEVEHEFR; Peptide with targeting and/or antimicrobial activity) [Peptide 1T-40]”, “S. mutans; also recorded: P. aeruginosa”.
Under “1T-41 (KRGSKIVIAIAVVLIVLAGVWVW; Peptide with targeting and/or antimicrobial activity) [Peptide 1T-41]” stands “S. mutans; also recorded: S. aureus; also recorded: S. epidermidis; also recorded: C. jeikeium; also recorded: C. striatum; also recorded: P. aeruginosa”.
As for “1T-42 (TVLDWLSLALATGLFVYLLVALLRADRA; Peptide with targeting and/or antimicrobial activity) [Peptide 1T-42]”, the “Target(s)” value is on record as “S. aureus; also recorded: S. epidermidis; also recorded: C. xerosis; also recorded: C. striatum; also recorded: P. aeruginosa”.
Under “1T-43 (DRCLSVLSWSPPKVSPLI; Peptide with targeting and/or antimicrobial activity) [Peptide 1T-43]” stands “C. jeikium; also recorded: P. aeruginosa”.
